Measurements: patent US7939091B2, “Biorational repellents obtained from terpenoids for use against arthropods” (Iowa State University Research Foundation, Inc., priority 1999, dated 2011)
Several values for one entry are separate records, joined by “and”; a condition that tells them apart may be missing. Equal values may be shown once.

Legend:
Type in all cases: in vivo
[1] = system: German cockroach (Blattella germanica); assay: Choice test arena repellency bioassay, adult male German cockroach, 300-second test; settings: for Mean Treated / Mean Untreated: 300-second test; for % repellency: (untreated − treated/300)*100
Experimental: Test Procedure. Repellency bioassays were conducted to assess the repellent properties of compositions containing catnip steam distillate (nepetalactone), Z,E-nepetalactone, E,Z-nepetalactone and DEET against cockroaches. Certified acetone and certified hexane were also tested in order to evaluate solvent effects. (DEET was dissolved in acetone, because DEET is insoluble in hexane. The tested compounds were dissolved in hexane because hexane was the solvent used to extract these compounds from the distillate). One Whatman 125-mm round filter paper was cut in half. One side was treated with one (1) ml of the test compound and the other side was treated with one (1) ml of solvent. The papers were allowed to dry in a fume hood for approximately two (2) minutes before being placed in a 150-mm Petri dish arena. The relative position of the treated side (i.e., to the right or left) of the dish was randomized using a random number table. […] The hole was stopped using a small piece of tape to prevent the insect from escaping. One adult male German cockroach (Blattella germanica) was selected from the colony and dropped into the pre-formed hole in the Petri dish lid. […] Ten (10) replications were performed for each test compound. Results. Using mean values and their related Standard Error of the Mean values (SEM), repellency of the selected samples was determined as shown in Table 2. Significance due to concentration was determined using ANOVA. […] Comparisons between test compounds were made using a two-tailed paired t-test (“paired t-test”) which indicates “differences” as is known in the art and shown in Table 4 (as compared with a “one-tailed” test, which indicates “greater or less than”). Testing Procedure. The same procedure described in Example 1 was used.

[2] = system: northern house mosquito, Culex pipiens; assay: Mosquito residual repellency bioassay (aged treated filter papers), static-air chamber
Excerpt: Aged applications of catnip essential oil, elemol, DEET, and hexane (control) were compared in the static-air choice-test apparatus under the same conditions as described above. The 0.5% and 0.1% (wt/vol) solutions of each test solution were made to yield the same rate of active ingredient used in the above mosquito repellency bioassay. Individually treated filter papers were then placed in a fume hood and aged for 0, 30, 60, 120, or 180-minutes, allowing volatization to occur over a set period of time. After the specified ageing period, filter papers were placed on the inside of the 9-cm glass petri dish lids, and then placed over the ends of the glass tube. The position of the treated side was randomized. Approximately […] unmated adult female mosquitoes were anaesthetized with CO2 and then introduced to the 9×60-cm glass cylinder through the centered 2-cm hole. Timing began 2 minutes after mosquito introduction, and mosquito distribution (number of individuals on treated and untreated sides) inside the static-air choice-test apparatus was recorded after 15 minutes for determination of Percentage Repellency (calculations shown under Percentage and Contact Repellency Bioassay). Experimental design was completely randomized with three replications of each aged test solution. Analysis of variance was used to identify significant differences related to active ingredient, concentration, and ageing period. Regression analysis was used to examine percentage repellency relationship to filter paper ageing.

[3] = system: German cockroach, Blattella germanica; assay: Choice-test arena bioassay (contact irritancy), German cockroach, Example 6; settings: 300-second period
Experimental: (§1) A choice-test arena was used to assess irritancy of test solutions to two common household insect pests, the German cockroach (Blattella germanica) and the house fly (Musca domestica). Catnip essential oil obtained by steam distillation of catnip obtained from the same source as described in the above examples, and the two major components of its essential oil, Z,E-nepetalactone and E,Z-nepetalactone (isolated from the essential oil by preparative TLC), were evaluated for behavioral effects of contact irritancy to the German cockroach. The TLC was performed as described in McElvain, S. M. et al., J. Am. Chem. Soc., 1941, 63, 1558-1563. Catnip essential oil and its major constituent Z,E-nepetalactone were tested against the house fly. N,N-diethyl-m-toluamide (DEET) (Aldrich, St. Louis, Mo.) served as a positive control for the choice-test arena assay and as a point of comparison for measuring insect behavioral effects that result from current commercial insect repellents. Test solutions ranging from 10% to 0.1% (vol/vol) active ingredient (a.i.) were made up in acetone and then delivered on to a filter paper for solvent evaporation. […] Choice-test are for German cockroaches and house flies were constructed from plastic Petri dishes. One-half of a 12.5-cm dia. filter paper was treated with 1 ml test solution, and the other was treated with 1 ml of only solvent (control). Both halves of the filter paper were placed in the choice-test arena. Position of the treated filter paper was randomized using a random-number table.
(§2) Individual German cockroaches or house flies were placed in each choice-test arena through a centered hole in the lid of the Petri dish and evaluated for a 300-second period. The amount of time the insect spent on the treated and untreated filter papers were recorded and used to calculate a percentage repellency value: Percentage Repellency=((Time on Untreated-Time on Treated)/300)×100
(§3) Ten replicates of each treatment solution were tested for both German cockroaches and house flies. Details of this assay design and some results have previously been described.

[4] = system: house fly, Musca domestica; assay: Choice-test arena bioassay (contact irritancy), house fly; settings: for Percentage Repellency: 300-second period
Experimental: as §1, §2, §3

[5] = 15.7 μg/cm^2 (0.1%), treatment aged 0 min
[6] = 15.7 μg/cm^2 (0.1%), treatment aged 30 min
[7] = 15.7 μg/cm^2 (0.1%), treatment aged 60 min
[8] = 15.7 μg/cm^2 (0.1%), treatment aged 120 min
[9] = 15.7 μg/cm^2 (0.1%), treatment aged 180 min
[10] = 78.6 μg/cm^2 (0.5%), treatment aged 0 min
[11] = 78.6 μg/cm^2 (0.5%), treatment aged 30 min
[12] = 78.6 μg/cm^2 (0.5%), treatment aged 60 min
[13] = 78.6 μg/cm^2 (0.5%), treatment aged 120 min
[14] = 78.6 μg/cm^2 (0.5%), treatment aged 180 min
[15] = 0.1% test solution vs solvent-treated half, male
[16] = 0.5% test solution vs solvent-treated half, male
[17] = 1% test solution vs solvent-treated half, male
[18] = 5% test solution vs solvent-treated half, male
[19] = 10% test solution vs solvent-treated half, male

C=CC1(C)CCC(C(C)(C)O)CC1C(=C)C (stereo not shown) [Elemol]
Mean Treated ([1]; amount used 1% solution): 107 s
Mean Untreated ([1]; amount used 1% solution): 196 s
% repellency ([1]; amount used 1% solution): 30%
Percentage Repellency Over Time [2, 5]: 35.0%
Percentage Repellency Over Time [2, 6]: 30.8%
Percentage Repellency Over Time [2, 7]: 49%
Percentage Repellency Over Time [2, 8]: 20.7%
Percentage Repellency Over Time [2, 9]: 44.8%
Percentage Repellency Over Time [2, 10]: 84.7%
Percentage Repellency Over Time [2, 11]: 76.5%
Percentage Repellency Over Time [2, 12]: 96.5%
Percentage Repellency Over Time [2, 13]: 80.8%
Percentage Repellency Over Time [2, 14]: 76.5%

CCN(CC)C(=O)c1cccc(C)c1 [DEET, N,N-diethyl-3-methylbenzamide, reference compound]
Mean Treated [1, 15]: 129 s
Mean Untreated [1, 15]: 175 s
Mean Treated [1, 16]: 128 s
Mean Untreated [1, 16]: 175 s
Mean Treated [1, 17]: 120 s
Mean Untreated [1, 17]: 181 s
Mean Treated [1, 18]: 113 s
Mean Untreated [1, 18]: 190 s
Mean Treated [1, 19]: 63 s and 63.4 s
Mean Untreated [1, 19]: 238 s
Mean seconds on treated side ± SEM ([1]; Non-antennectomized male cockroaches, 1600 μg/cm^2): 63.4 ± 15.9 s
% repellency ([1]; dose 16 μg/cm^2): 15%
Mean seconds on treated side ± SEM ([1]; dose 16 μg/cm^2, male B. germanica, in 300 seconds): 129 ± 9.0 a seconds
% repellency ([1]; dose 80 μg/cm^2): 16%
Mean seconds on treated side ± SEM ([1]; dose 80 μg/cm^2, male B. germanica, in 300 seconds): 128 ± 9.7 a seconds
% repellency ([1]; dose 160 μg/cm^2): 20%
Mean seconds on treated side ± SEM ([1]; dose 160 μg/cm^2, male B. germanica, in 300 seconds): 120 ± 13.8 a seconds
% repellency ([1]; dose 800 μg/cm^2): 26%
Mean seconds on treated side ± SEM ([1]; dose 800 μg/cm^2, male B. germanica, in 300 seconds): 113 ± 14.5 a seconds
% repellency ([1]; dose 1600 μg/cm^2): 58%
Mean seconds on treated side ± SEM ([1]; dose 1600 μg/cm^2, male B. germanica, in 300 seconds): 63.4 ± 15.9 b seconds
Percentage Repellency ± SEM ([3]; application rate 80 μg/cm^2): 15.5 ± 5.4a %
Percentage Repellency ± SEM ([3]; application rate 160 μg/cm^2): 20.4 ± 9.2a %
Percentage Repellency ± SEM ([3]; application rate 800 μg/cm^2): 25.8 ± 9.5a %
Percentage Repellency ± SEM ([3]; application rate 1.60 mg/cm^2): 58.3 ± 10.5b %
higher percentage repellency values (text summary of Table 15) ([4]; across application rates tested): 39%
Percentage Repellency ([4]; application rate 80 μg/cm^2): 38.7%
Percentage Repellency ([4]; application rate 160 μg/cm^2): 19.3%
Percentage Repellency ([4]; application rate 800 μg/cm^2): 20.7%
Percentage Repellency Over Time [2, 5]: 54.9%
Percentage Repellency Over Time [2, 6]: 23.1%
Percentage Repellency Over Time [2, 7]: 45.7%
Percentage Repellency Over Time [2, 8]: 39%
Percentage Repellency Over Time [2, 9]: 70.6%
Percentage Repellency Over Time [2, 10]: 74.0%
Percentage Repellency Over Time [2, 11]: 37%
Percentage Repellency Over Time [2, 12]: 59%
Percentage Repellency Over Time [2, 13]: 77.7%
Percentage Repellency Over Time [2, 14]: 74%
